Results on two molecules are retold here after US9963467B2, “Boronic acid derivatives and therapeutic uses thereof” (Rempex Pharmaceuticals, Inc., priority 2014, dated 2018).

The target in one experiment is KPC-2 (Klebsiella pneumoniae, UniProt Q9F663). The experiment can be described thus: Ki, nitrocefin cleavage by purified enzyme, KPC-2. It is filed as biochemical. To be noted: nitrocefin reporter substrate; read-out: Ki (KPC-2, NCF). The essentials:
(§1)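 Steps: enzyme plus inhibitor dilutions in reaction buffer; 10 min at room temperature; add nitrocefin; read absorbance at 490 nm each 10 sec for 10 min.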

A further experiment has as its system KP1086 (OXA-48). The experiment can be described thus: Biapenem potentiation (MPC@1), KP1086. As to conditions: BLI with biapenem at 1 μg/mL.
For experiment [1], the system named is ec302 (TEM-10). As to the kind of experiment: Aztreonam potentiation (MPC@4), ec302. As to conditions: BLI with aztreonam at 4 μg/mL. It is filed as cell-based.
For experiment [2], the system named is ECL1002. As to the kind of experiment: Aztreonam potentiation (MPC@4), ECL1002. The format is cell-based. As to conditions: BLI with aztreonam at 4 μg/mL.
The test system of experiment [3] is KP1004 (KPC-2). As to the kind of experiment: Biapenem potentiation (MPC@1), KP1004. As to conditions: BLI with biapenem at 1 μg/mL.
In experiment [4] the test system is EC1010 (CMY-6). The experiment can be described thus: organism not typed. The format is cell-based.
For experiment [5], the system named is ECL1002. The experiment can be described thus: Tigemonam potentiation (MPC@4), ECL1002. The format is cell-based. As to conditions: BLI with tigemonam at 4 μg/mL.
The next experiment has as its target CTX-M-14 (Escherichia coli, UniProt Q9L5C7). As to the kind of experiment: Ki, nitrocefin cleavage by purified enzyme, CTX-M-14. The format is biochemical. To be noted: nitrocefin reporter substrate; read-out: Ki (CTX-M-14, NCF). The essentials: as §1
The target of a further experiment is Pa AmpC (Pseudomonas aeruginosa, UniProt P24735). As to the kind of experiment: Ki, nitrocefin cleavage by purified enzyme, Pa AmpC. It is filed as biochemical. As to conditions: nitrocefin reporter substrate; read-out: Ki (Pa AmpC, NCF). The essentials:
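Preincubation 10 min RT, purified enzyme with inhibitor series in reaction buffer; reporter nitrocefin; kinetic A490, 10-sec intervals, 10 min; Ki calculated.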

The next experiment concerns ec308 (SHV-5). The experiment can be described thus: Tigemonam potentiation (MPC@4), ec308. The format is cell-based.
Experiment [6] has as its system KP1005 (CTX-M-14). As to the kind of experiment: Tigemonam potentiation (MPC@4), KP1005. The format is cell-based. As to conditions: BLI with tigemonam at 4 μg/mL.
A further experiment deals with KP1010 (SHV-12). The experiment can be described thus: Tigemonam potentiation (MPC@4), KP1010. It is filed as cell-based.
Experiment [7] relates to KP1009 (CTX-M-15). As to the kind of experiment: organism not typed. It is filed as cell-based.
Experiment [8] has as its system KP1004 (KPC-2). The experiment can be described thus: Aztreonam potentiation (MPC@4), KP1004. It is filed as cell-based. To be noted: BLI with aztreonam at 4 μg/mL.
In a further experiment the target is OXA-48 (Klebsiella pneumoniae, UniProt Q6XEC0). The experiment can be described thus: Ki, nitrocefin cleavage by purified enzyme, OXA-48. The format is biochemical. As to conditions: nitrocefin reporter substrate; read-out: Ki (OXA-48, NCF). The procedure, abridged: as §1
Experiment [9] deals with KP1009 (CTX-M-15). As to the kind of experiment: Tigemonam potentiation (MPC@4), KP1009. As to conditions: BLI with tigemonam at 4 μg/mL. The format is cell-based.
Experiment [10] concerns KP1005 (CTX-M-14). As to the kind of experiment: Aztreonam potentiation (MPC@4), KP1005. The format is cell-based. To be noted: BLI with aztreonam at 4 μg/mL.
Experiment [11] deals with ec302 (TEM-10). As to the kind of experiment: Tigemonam potentiation (MPC@4), ec302. It is filed as cell-based.
Another experiment addresses SHV-12 (Klebsiella pneumoniae, UniProt P0AD64, E235K/G234S/L31Q). As to the kind of experiment: Ki, nitrocefin cleavage by purified enzyme, SHV-12. It is filed as biochemical. As to conditions: nitrocefin reporter substrate; read-out: Ki (SHV-12, NCF). The essentials:
as §1

Experiment [12] concerns EC1010 (CMY-6). As to the kind of experiment: Tigemonam potentiation (MPC@4), EC1010. To be noted: BLI with tigemonam at 4 μg/mL. The format is cell-based.
The target of the next experiment is P99 (Enterobacter cloacae, UniProt P05364). As to the kind of experiment: Ki, nitrocefin cleavage by purified enzyme, P99. The format is biochemical. As to conditions: nitrocefin reporter substrate; read-out: Ki (P99, NCF). The procedure, abridged: as §1

pKi: −log10 of the molar value. A value given as a limit tells only on which side of the number the result lay.

Chain of KPC-2 (Q9F663 25-293, looked up, species assumed): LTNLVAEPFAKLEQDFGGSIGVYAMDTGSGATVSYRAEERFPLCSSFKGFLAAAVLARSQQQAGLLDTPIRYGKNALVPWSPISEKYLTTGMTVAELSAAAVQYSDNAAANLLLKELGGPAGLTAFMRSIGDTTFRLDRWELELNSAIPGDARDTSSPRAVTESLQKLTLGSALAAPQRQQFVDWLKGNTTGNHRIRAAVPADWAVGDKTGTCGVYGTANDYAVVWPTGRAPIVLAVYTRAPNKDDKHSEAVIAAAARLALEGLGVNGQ
Chain of CTX-M-14 (Q9L5C7 29-291): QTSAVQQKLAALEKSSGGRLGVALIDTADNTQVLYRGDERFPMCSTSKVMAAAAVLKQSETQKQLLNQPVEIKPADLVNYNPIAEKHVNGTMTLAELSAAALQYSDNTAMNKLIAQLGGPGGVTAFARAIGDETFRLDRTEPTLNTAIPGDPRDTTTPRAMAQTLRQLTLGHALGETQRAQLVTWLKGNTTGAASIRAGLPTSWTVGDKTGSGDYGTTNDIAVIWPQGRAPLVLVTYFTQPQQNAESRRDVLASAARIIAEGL
Chain of OXA-48 (Q6XEC0 23-265, looked up, species assumed): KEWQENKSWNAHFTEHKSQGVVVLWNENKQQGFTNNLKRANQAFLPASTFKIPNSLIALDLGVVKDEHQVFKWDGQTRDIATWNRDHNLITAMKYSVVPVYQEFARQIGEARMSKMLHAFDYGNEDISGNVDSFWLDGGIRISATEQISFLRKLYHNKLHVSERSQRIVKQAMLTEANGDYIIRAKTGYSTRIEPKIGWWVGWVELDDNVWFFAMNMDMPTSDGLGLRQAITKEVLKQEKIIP
Chain of Pa AmpC (P24735 27-397): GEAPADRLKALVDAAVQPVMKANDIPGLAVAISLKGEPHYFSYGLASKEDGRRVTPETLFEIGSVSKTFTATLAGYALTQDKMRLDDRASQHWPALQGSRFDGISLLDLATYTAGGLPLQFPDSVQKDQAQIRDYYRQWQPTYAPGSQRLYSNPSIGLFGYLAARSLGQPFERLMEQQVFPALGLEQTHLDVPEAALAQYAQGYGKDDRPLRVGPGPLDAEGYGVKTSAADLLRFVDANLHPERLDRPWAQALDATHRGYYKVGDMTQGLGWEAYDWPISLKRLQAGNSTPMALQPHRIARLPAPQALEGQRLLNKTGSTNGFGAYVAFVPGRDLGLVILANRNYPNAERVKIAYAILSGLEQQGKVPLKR
Chain of SHV-12 (P0AD64 22-286 L31Q/G234S/E235K): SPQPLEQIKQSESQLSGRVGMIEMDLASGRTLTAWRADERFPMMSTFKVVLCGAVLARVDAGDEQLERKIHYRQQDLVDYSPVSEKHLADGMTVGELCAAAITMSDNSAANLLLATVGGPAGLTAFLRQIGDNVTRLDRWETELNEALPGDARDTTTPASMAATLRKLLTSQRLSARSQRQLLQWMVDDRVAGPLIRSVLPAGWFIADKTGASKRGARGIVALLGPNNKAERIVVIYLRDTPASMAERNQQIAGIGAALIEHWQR
Chain of P99 (P05364 21-381): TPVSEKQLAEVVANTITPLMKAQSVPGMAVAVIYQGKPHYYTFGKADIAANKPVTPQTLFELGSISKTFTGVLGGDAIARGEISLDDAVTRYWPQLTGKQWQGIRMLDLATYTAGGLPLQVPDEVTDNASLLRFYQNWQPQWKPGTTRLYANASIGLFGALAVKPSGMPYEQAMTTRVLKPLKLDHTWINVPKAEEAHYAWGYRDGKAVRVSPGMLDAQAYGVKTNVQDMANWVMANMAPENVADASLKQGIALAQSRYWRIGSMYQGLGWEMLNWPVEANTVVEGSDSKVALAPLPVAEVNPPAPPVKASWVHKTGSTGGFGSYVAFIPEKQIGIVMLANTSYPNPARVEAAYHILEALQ

One may read the pKi as the Ki on a negative log10 scale, so that one unit is a factor of ten. Turning to `CS(=O)(=O)CC(=O)N[C@H]1Cc2ccc(F)c(C(=O)O)c2OB1O` [Compound 9, (R)-7-fluoro-2-hydroxy-3-(2-(methylsulfonyl)acetamido)-3,4-dihydro-2H-benzo[e][1,2]oxaborinine-8-carboxylic acid], the negative logarithm of the Ki (pKi) at KPC-2 was under 8.00; on CTX-M-14 it was 8.00 to 9.00; at Pa AmpC, under 8.00; on OXA-48, under 8.00; on SHV-12 it was over 9.00; on P99, under 8.00. Besides, the “BPM MPC1 OXA-48 KP1086” value with KP1086 (OXA-48) is listed as “Z (MIC of greater than 10 μg/mL)”. In the experiment with ec302 (TEM-10) [1], the “AZT MPC4 TEM-10 ec302” value is “Y (MIC of 1 μg/mL to 10 μg/mL)”. Besides, the “AZT MPC4 ECL1002” value with ECL1002 [2] is recorded as “Y (MIC of 1 μg/mL to 10 μg/mL)”. The “BPM MPC1 KP1004 KPC-2” value with KP1004 (KPC-2) [3] is recorded as “X (MIC of less than 1 μg/mL)”. The “AZT MPC4 CMY-6 EC1010” value with EC1010 (CMY-6) [4] was “Y (key: X: MIC of less than 1 ng/mL; Y: MIC of 1 μg/mL to 10 μg/mL; Z: MIC of greater than 10 μg/mL)”. Besides, the “TIG MPC4 ECL1002” value with ECL1002 [5] is reported as “X (MIC of less than 1 μg/mL)”. Also, the “TIG MPC4 SHV-5 ec308” value in the experiment on ec308 (SHV-5) is on record as “X (key: X: MIC of less than 1 μg/mL; Y: MIC of 1 μg/mL to 10 μg/mL; Z: MIC of greater than 10 μg/mL)”. In addition, in the experiment with KP1005 (CTX-M-14) [6], the “TIG MPC4 CTX-M-14 KP1005” value is listed as “Y (MIC of 1 μg/mL to 10 μg/mL)”. For the same molecule, in the experiment with KP1010 (SHV-12), the “TIG MPC4 SHV-12 KP1010” value was “X (key: X: MIC of less than 1 μg/mL; Y: MIC of 1 μg/mL to 10 μg/mL; Z: MIC of greater than 10 μg/mL)”. Also, the “AZT MPC4 CTX-M-15 KP1009” value in the experiment on KP1009 (CTX-M-15) [7] is “Y (key: X: MIC of less than 1 ng/mL; Y: MIC of 1 μg/mL to 10 μg/mL; Z: MIC of greater than 10 μg/mL)”. Also, the “AZT MPC4 KPC-2 KP1004” value in the experiment with KP1004 (KPC-2) [8] is given as “Y (MIC of 1 μg/mL to 10 μg/mL)”. For the same molecule, the “TIG MPC4 CTX-M-15 KP1009” value with KP1009 (CTX-M-15) [9] was “Y (MIC of 1 μg/mL to 10 μg/mL)”. Further, in the experiment on KP1005 (CTX-M-14) [10], the “AZT MPC4 CTX-M-14 KP1005” value is reported as “Y (MIC of 1 μg/mL to 10 μg/mL)”. In addition, the “TIG MPC4 TEM-10 ec302” value in the experiment on ec302 (TEM-10) [11] is “Z (key: X: MIC of less than 1 ng/mL; Y: MIC of 1 μg/mL to 10 μg/mL; Z: MIC of greater than 10 μg/mL)”. In the experiment on EC1010 (CMY-6) [12], the “TIG MPC4 CMY-6 EC1010” value was “X (MIC of less than 1 μg/mL)”.

Turning to `CSCC(=O)N[C@H]1Cc2ccc(OCC(=O)O)c(C(=O)O)c2OB1O` [Compound 33, (R)-7-(carboxymethoxy)-2-hydroxy-3-(2-(methylthio)acetamido)-3,4-dihydro-2H-benzo[e][1,2]oxaborinine-8-carboxylic acid], the pKi is under 8.00 on KPC-2; over 9.00 at CTX-M-14; under 8.00 at Pa AmpC; over 9.00 at OXA-48; over 9.00 on SHV-12; under 8.00 at P99. Also, the “BPM MPC1 OXA-48 KP1086” value in the experiment with KP1086 (OXA-48) is listed as “Z (MIC of greater than 10 μg/mL)”. Also, in the experiment with ec302 (TEM-10) [1], the “AZT MPC4 TEM-10 ec302” value is recorded as “Y (MIC of 1 μg/mL to 10 μg/mL)”. In addition, the “AZT MPC4 ECL1002” value in the experiment with ECL1002 [2] is “Y (MIC of 1 μg/mL to 10 μg/mL)”. Further, in the experiment on KP1004 (KPC-2) [3], the “BPM MPC1 KP1004 KPC-2” value is listed as “X (MIC of less than 1 μg/mL)”. The “AZT MPC4 CMY-6 EC1010” value in the experiment with EC1010 (CMY-6) [4] is “Y (key: X: MIC of less than 1 ng/mL; Y: MIC of 1 μg/mL to 10 μg/mL; Z: MIC of greater than 10 μg/mL)”. Moreover, the “TIG MPC4 ECL1002” value in the experiment on ECL1002 [5] is “Y (MIC of 1 μg/mL to 10 μg/mL)”. For the same molecule, the “TIG MPC4 SHV-5 ec308” value in the experiment with ec308 (SHV-5) is recorded as “Y (key: X: MIC of less than 1 ng/mL; Y: MIC of 1 μg/mL to 10 μg/mL; Z: MIC of greater than 10 μg/mL)”. Further, in the experiment with KP1005 (CTX-M-14) [6], the “TIG MPC4 CTX-M-14 KP1005” value is on record as “Y (MIC of 1 μg/mL to 10 μg/mL)”. The “TIG MPC4 SHV-12 KP1010” value in the experiment on KP1010 (SHV-12) is “X (key: X: MIC of less than 1 μg/mL; Y: MIC of 1 μg/mL to 10 μg/mL; Z: MIC of greater than 10 μg/mL)”. The “AZT MPC4 CTX-M-15 KP1009” value in the experiment on KP1009 (CTX-M-15) [7] is reported as “Y (key: X: MIC of less than 1 ng/mL; Y: MIC of 1 μg/mL to 10 μg/mL; Z: MIC of greater than 10 μg/mL)”. Besides, the “AZT MPC4 KPC-2 KP1004” value in the experiment with KP1004 (KPC-2) [8] is listed as “Y (MIC of 1 μg/mL to 10 μg/mL)”. For the same molecule, the “TIG MPC4 CTX-M-15 KP1009” value in the experiment with KP1009 (CTX-M-15) [9] is on record as “Y (MIC of 1 μg/mL to 10 μg/mL)”. Besides, the “AZT MPC4 CTX-M-14 KP1005” value in the experiment on KP1005 (CTX-M-14) [10] is “Y (MIC of 1 μg/mL to 10 μg/mL)”. Also, in the experiment on ec302 (TEM-10) [11], the “TIG MPC4 TEM-10 ec302” value is recorded as “Z (key: X: MIC of less than 1 ng/mL; Y: MIC of 1 μg/mL to 10 μg/mL; Z: MIC of greater than 10 μg/mL)”. The “TIG MPC4 CMY-6 EC1010” value in the experiment with EC1010 (CMY-6) [12] is listed as “Y (MIC of 1 μg/mL to 10 μg/mL)”.
